Reference: US20100189675A1, “COSMETIC USE OF AN IMIDOPERCARBOXYLIC ACID DERIVATIVE AS DESQUAMATING AGENT” (L'Oreal, priority 2007, published 2010)

Test system: corneocytes
Assay: In vitro test of desquamating efficacy (corneocytes liberated, expressed as protein concentration)
Assay type: cell-based
Experimental: An in vitro test was carried out in order to determine the efficacy of phthalimidoperoxycaproic acid compared with a composition comprising 30% of glycolic acid and 70% of water. The number of corneocytes liberated is expressed as protein concentration. After applying a composition comprising 17% of phthalimidoperoxycaproic acid, the protein concentration is about 320 μg/ml, while it is about 210 μg/ml for the composition comprising glycolic acid.

Compound	number of corneocytes liberated expressed as protein concentration (composition comprising 30% of glycolic acid and 70% of water)	number of corneocytes liberated expressed as protein concentration (after applying a composition comprising 17% of phthalimidoperoxycaproic acid)	desquamating efficacy compared with reference (compared with glycolic acid (AG) at 30%)
O=C(O)CO [glycolic acid, reference compound]	about 210 μg/ml	–	–
O=C(CCCCCN1C(=O)c2ccccc2C1=O)OO [phthalimidoperoxycaproic acid]	–	about 320 μg/ml	high desquamating efficacy greater than the reference glycolic acid
